Patent publication US8932597B2 (priority 2008, dated 2015)

Tests used:
[1] = test system: anti-M2 human monoclonal antibody Z3G1; assay type: binding
HuM2e antibody 23K12 = assay type: binding, human

| Substance | Signal (peptides that show specific binding to Z3G1) [1] | Signal (peptides that bind to 23K21 and 8I10) (HuM2e antibody 23K12) | Signal (peptides that bind to Z3G1) [1] | Binding to Z3G1 (in words) [1] | Binding to 23K12 (in words) (HuM2e antibody 23K12) |
| --- | --- | --- | --- | --- | --- |
| 703 (SLLTEVETPIRNWWGCRCNDSSD; epitope peptide) [compound 703] | 2293 | 713 | – | – | – |
| 470 (MSLLTEVGCSLLTEC; epitope peptide) [compound 470] | – | 1227 | 2349 | – | – |
| 694 (SLLTEVETPIRNEWGCRCNESSD; epitope peptide) [compound 694] | – | 720 | 2282 | – | – |
| 394 (SLLTEVETPIRNEWGCRCNMSSD; epitope peptide) [compound 394] | – | 1133 | 2574 | – | – |
| 711 (CSLLTEVGSLCTEV; epitope peptide) [compound 711] | 2409 | 707 | – | – | – |
| 420 (SLLTEVETPIRNEWGCRCNDSCD; epitope peptide) [compound 420] | – | 725 | 2269 | – | – |
| 351 (SLLCEVGSLLTEC; epitope peptide) [compound 351] | 2438 | 1564 | – | – | – |
| 676 (SLLTEVETPIENEWGCRCNDSSD; epitope peptide) [compound 676] | 2252 | 731 | – | – | – |
| 432 (SLLTEVETPIRNEWGCRCNDSVD; epitope peptide) [compound 432] | – | 728 | 2232 | – | – |
| 641 (SLLTEVETPIRNELGCRCNDSSD; epitope peptide) [compound 641] | 2436 | 765 | – | – | – |
| 223 (CVETPIRNEWGSRSNDCSLLTEVETC; epitope peptide) [compound 223] | 2233 | 905 | – | – | – |
| 438 (SLLTEVETPIRN; epitope peptide) [compound 438] | – | 751 | 2130 | – | – |
| SLLTEVGSLLTEV (epitope peptide) [SEQ ID NO: 320] | – | – | – | recognized | best 23k12 binder |
| 534 (SLLTEVEKPIRNEWGCRCNDSSD; epitope peptide) [compound 534] | 2505 | 963 | – | – | – |
| 646 (SLLTEVEGPIRNEWGCRCNDSSD; epitope peptide) [compound 646] | 2341 | 763 | – | – | – |
| 440 (SLLTEVETPIRNEW; epitope peptide) [compound 440] | – | 750 | 2334 | – | – |
| 651 (SLLTEVETPIRNEWGCRCHDSSD; epitope peptide) [compound 651] | – | 758 | 2350 | – | – |
| 465 (SLLTEVETPIRNEWGCRCNKSSD; epitope peptide) [compound 465] | – | 1254 | 2597 | – | – |
| 330 (SLLTEVETPIRNEWGCRCNDYSD; epitope peptide) [compound 330] | – | 1694 | 2445 | – | – |

| Substance | Signal (peptides that show specific binding to Z3G1) [1] | Signal (peptides that bind to 23K21 and 8I10) (HuM2e antibody 23K12) | Signal (peptides that bind to Z3G1) [1] | Binding to Z3G1 (in words) [1] | Binding to 23K12 (in words) (HuM2e antibody 23K12) |
| --- | --- | --- | --- | --- | --- |
| 664 (SLLTEVETPIRNEWGNRCNDSSD; epitope peptide) [compound 664] | 2328 | 746 | – | – | – |
| 398 (SLLTEVETPIRNEWGCRCNRSSD; epitope peptide) [compound 398] | – | 890 | 2514 | – | – |
| 316 (MSLLTEVGCSLLTEV; epitope peptide) [compound 316] | – | 1809 | 2650 | – | – |
| 559 (SLLTEVETAIRNEWGCRCNDSSD; epitope peptide) [compound 559] | 2415 | 895 | – | – | – |
| 594 (SLLTEVQTPIRNEWGCRCNDSSD; epitope peptide) [compound 594] | 2289 | 838 | – | – | – |
| 695 (SLLTEVEVPIRNEWGCRCNDSSD; epitope peptide) [compound 695] | 2286 | 719 | – | – | – |
| 491 (SLLTEVETLIRNEWGCRCNDSSD; epitope peptide) [compound 491] | 2225 | 1109 | – | – | – |
| 627 (SLLTEVETPIRIEWGCRCNDSSD; epitope peptide) [compound 627] | 2444 | 789 | – | – | – |
| 529 (SLLTEVETNIRNEWGCRCNDSSD; epitope peptide) [compound 529] | 2253 | 978 | – | – | – |
| 517 (SLLTEVETPIRNEMGCRCNDSSD; epitope peptide) [compound 517] | 2398 | 1020 | – | – | – |
| 616 (SLLTEVETPIRNPWGCRCNDSSD; epitope peptide) [compound 616] | 2288 | 808 | – | – | – |
| 697 (SLLTEVETPIRNEWGCRINDSSD; epitope peptide) [compound 697] | 2409 | 718 | – | – | – |
| 506 (SLCTEVGSLLCEV; epitope peptide) [compound 506] | 1863 | 1050 | – | – | – |
| 496 (SCLTEVGSLLCEV; epitope peptide) [compound 496] | 1896 | 1095 | – | – | – |
| 387 (SLLTEVETPIRTEWGCRCNDSSD; epitope peptide) [compound 387] | 2360 | 1365 | – | – | – |
| 459 (SLITEVETPIRNEWGCRCNDSSD; epitope peptide) [compound 459] | 1996 | 1277 | – | – | – |
| 620 (SLLTEVETPIRFEWGCRCNDSSD; epitope peptide) [compound 620] | 2364 | 806 | – | – | – |
| 556 (SLLTELETPIRNEWGCRCNDSSD; epitope peptide) [compound 556] | 1380 | 900 | – | – | – |
| 264 (CSLLTEVETCVETPIRNEWGSRSNDC; epitope peptide) [compound 264] | 2374 | 707 | – | – | – |

| Substance | Signal (peptides that show specific binding to Z3G1) [1] | Signal (peptides that bind to 23K21 and 8I10) (HuM2e antibody 23K12) | Signal (peptides that bind to Z3G1) [1] | Binding to Z3G1 (in words) [1] | Binding to 23K12 (in words) (HuM2e antibody 23K12) |
| --- | --- | --- | --- | --- | --- |
| 691 (SLLTEVETPIRNEWGCRMNDSSD; epitope peptide) [compound 691] | 2356 | 722 | – | – | – |
| 447 (SLLTEVETPIRNEWGCRCNDS; epitope peptide) [compound 447] | – | 817 | 2348 | – | – |
| 383 (CSLLTEVGCSLLTEC; epitope peptide) [compound 383] | – | 1380 | 2486 | – | – |
| 584 (SLLTEVETPIRNEWGCRRNDSSD; epitope peptide) [compound 584] | 2383 | 855 | – | – | – |
| 390 (CLLTEVGSLLTEV; epitope peptide) [compound 390] | 2494 | 1349 | – | – | – |
| 677 (SLLTEVETPIQNEWGCRCNDSSD; epitope peptide) [compound 677] | 2372 | 731 | – | – | – |
| 705 (SLLTEVKTPIRNEWGCRCNDSSD; epitope peptide) [compound 705] | 1905 | 712 | – | – | – |
| 226 (CTEVETPIRNEWGSRSCSLLTEVETC; epitope peptide) [compound 226] | 2140 | 891 | – | – | – |
| 428 (SLLTEVETPIRNEWGCRCNDSPD; epitope peptide) [compound 428] | – | 772 | 2344 | – | – |
| 286 (CSLLTEVGMSLLTCV; epitope peptide) [compound 286] | – | 2311 | 2768 | – | – |
| 365 (CSLLTEVCMSLLTEC; epitope peptide) [compound 365] | – | 1498 | 1891 | – | – |
| 297 (CSLLTEVGMCLCTCV; epitope peptide) [compound 297] | – | 1972 | 2649 | – | – |
| 293 (CSLLTEVGMSLLTEV; epitope peptide) [compound 293] | – | 2039 | 2827 | – | – |
| 477 (SLLTECGSLLCEV; epitope peptide) [compound 477] | 2403 | 1206 | – | – | – |
| 613 (SLLTEVETPIRNEWGCRCNHSSD; epitope peptide) [compound 613] | – | 812 | 2439 | – | – |
| 400 (SLLTEVETPIRNEWGCRCNVSSD; epitope peptide) [compound 400] | – | 865 | 2476 | – | – |
| 581 (SLLTEVETYIRNEWGCRCNDSSD; epitope peptide) [compound 581] | 2290 | 857 | – | – | – |
| 213 (CETPIRNEWGSRSNDSCSLLTEVETC; epitope peptide) [compound 213] | 1997 | 971 | – | – | – |
| 230 (CTPIRNEWGSRSNDSSCSLLTEVETC; epitope peptide) [compound 230] | 2168 | 861 | – | – | – |
